Converted amounts (≈) assume the structure as drawn. Marks after values point to notes of the source that are not given here. Non-standard residues stand in square brackets, D forms with d. Residues, ends and D or L forms follow the SMILES beside them. dPhe(4-Cl) = N[C@H](Cc1ccc(Cl)cc1)C(=O)O; dPhe(4-Me) = Cc1ccc(C[C@@H](N)C(=O)O)cc1; d2Nal = N[C@H](Cc1ccc2ccccc2c1)C(=O)O
Experiments:
[1] = test system: Staphylococcus aureus (NRS 384); conditions: NRS 384, 3 h
Description: Trypsin (250 U/mg, pH=8.0) and AMPs (LV-1 to LV-30) were mixed in a ratio of 1:10 (w/w) and added to a reaction buffer (0.2 M sodium phosphate, 1 mM CaCl2), pH 7.5), and then incubated at 37° C. for 3 h.

[2] = Serum stability assay (residual level by RP-HPLC); conditions: human
[3] = test system: Escherichia coli ATCC 25922; experiment: Oral formulations on mice with systemic bacterial infection; assay type: in vivo, ICR mice; conditions: three times a day for 7 days; for Number of mice that died on each day after infection: day 4 / Number of mice that died on each day after infection: day 5 / Number of mice that died on each day after infection: day 6 / Number of mice that died on each day after infection: day 7 / Number of mice that died on each day after infection: day 8 / Average survival times (Days): n = 10; for Average survival times (Days): observed for 14 d
Description: Both female and male ICR mice were used in the test, half of the female and male mice were taken and randomly assigned into groups, with 10 mice in each group, and kept in separate cages. The mice were divided into a blank control group, a negative control group, a positive control Levofloxacin group, and AMPs LV-1 to LV-30 groups. An Escherichia coli ATCC 25922 bacterial suspension was prepared, a concentration of the suspension was adjusted 1×10^7 CFU/mL for subsequent use. Except for the blank control group, all other mice were injected with the Escherichia coli suspension (0.2 mL, 1×10^7 CFU/mL), into abdominal cavity of the mice, to establish a model. After the model was successfully established, the mice were given drug immediately according to their body weights. Except for the blank control group and the negative control group, the mice in all other groups were gavaged with different compounds, three times a day for 7 consecutive days. The mice were then observed for 14 d. The death of mice in each group was observed, and survival time of the mice was recorded. Results of the effect of the oral formulations of AMPs LV-1 to LV-30 on the survival time of mice infected with Escherichia coli are shown in Table 11.

[4] = test system: Staphylococcus aureus (NRS 384); experiment: microbe, parasite or virus in culture; assay type: cell-based; conditions: NRS 384
Method in brief: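 CLSI broth microdilution with serial twofold dilutions gave MICs against S. aureus NRS 384, with 5 parallel replicates. Levofloxacin and the AMP Cbf-K16 served as positive controls.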

[5] = test system: Shigella flexneri ATCC 12022; experiment: MIC against clinically common bacterial strain; assay type: cell-based
Source text: (§1) According to the Standards of Clinical and Laboratory Standards Institute (CLSI) of the USA for antimicrobial drug susceptibility test operation standards, the micronutrient serial twofold dilution method was used further determine MICs of 30 AMPs (S/N: LV-1 to LV-30) 10 clinically common sensitive strains and 6 fungi in clinical practice. The experiment was repeated 5 times in parallel.

Enterococcus ATCC 29212 = assay type: cell-based
Source text: as §1

[6] = test system: Salmonella typhimurium ATCC 14028; assay type: cell-based
Source text: as §1

[7] = test system: Bacillus subtilis ATCC 6633; assay type: cell-based
Source text: as §1

[8] = test system: Corynebacterium ATCC 7715; assay type: cell-based
Source text: as §1

[9] = test system: Candida glabrata ATCC 15126; assay type: cell-based
Source text: as §1

[10] = test system: Serratia marcescens ATCC 29021; assay type: cell-based
Source text: as §1

[11] = test system: Escherichia coli ATCC 25922; assay type: cell-based
Source text: as §1

Candida krusei ATCC 6258 = assay type: cell-based
Source text: as §1

[12] = test system: Trichophyton ATCC MYA-4438; assay type: cell-based
Source text: as §1

[13] = test system: Klebsiella pneumoniae ATCC 700603; assay type: cell-based
Source text: as §1

[14] = test system: Staphylococcus aureus ATCC 25923; assay type: cell-based
Source text: as §1

[15] = test system: Candida albicans ATCC MYA-2876; assay type: cell-based
Source text: as §1

[16] = test system: Candida tropicalis ATCC 750; assay type: cell-based
Source text: as §1

[17] = test system: Pseudomonas aeruginosa ATCC 27853; assay type: cell-based
Source text: as §1

Candida utilis ATCC 9950 = assay type: cell-based
Source text: as §1

SMILES	Trypsin MIC [1] [µg/mL]	remaining at 12 h, 0.91 mg/mL [2] [%]	Number of mice that died on each day after infection: day 4 ([3]; 1 mg/kg gavage) [Mouse]	Number of mice that died on each day after infection: day 5 ([3]; 1 mg/kg gavage) [Mouse]	Number of mice that died on each day after infection: day 6 ([3]; 1 mg/kg gavage) [Mouse]	Number of mice that died on each day after infection: day 7 ([3]; 1 mg/kg gavage) [Mouse]	Number of mice that died on each day after infection: day 8 ([3]; 1 mg/kg gavage) [Mouse]	Average survival times (Days) ([3]; 1 mg/kg gavage)	MIC against Staphylococcus aureus (NRS 384) [4] [µg/mL]	MIC Shigella flexneri ATCC 12022 [5] [µg/mL]	MIC Enterococcus ATCC 29212 (Enterococcus ATCC 29212) [µg/mL]	MIC Salmonella typhimurium ATCC 14028 [6] [µg/mL]	MIC Bacillus subtilis ATCC 6633 [7] [µg/mL]	MIC Corynebacterium ATCC 7715 [8] [µg/mL]	MIC Candida glabrata ATCC 15126 [9] [µg/mL]	MIC Serratia marcescens ATCC 29021 [10] [µg/mL]	MIC Escherichia coli ATCC 25922 [11] [µg/mL]	MIC Candida krusei ATCC 6258 (Candida krusei ATCC 6258) [µg/mL]	MIC Trichophyton ATCC MYA-4438 [12] [µg/mL]	MIC Klebsiella pneumoniae ATCC 700603 [13] [µg/mL]	further results
CC(=O)N[C@H](CCCNC(=N)N)C(=O)N[C@H](CCCCN)C(=O)N[C@H](CC(C)C)C(=O)N[C@H](CC(C)C)C(=O)N[C@H](Cc1ccc(C)cc1)C(=O)N[C@H](CCCCN)C(=O)N[C@H](CC(C)C)C(=O)N[C@H](CCCCN)C(=O)N[C@H](Cc1ccc(C)cc1)C(=O)N[C@H](CCCCN)C(=O)N[C@H](CCCNC(=N)N)C(N)=O [LV-11] (Ac-[dR][dK][dL][dL][dPhe(4-Me)][dK][dL][dK][dPhe(4-Me)][dK][dR]-NH2)	1	98.3	1	1	1	1	2	9.4** Days	1 (≈ 0.647 µM)	4 (≈ 2.59 µM)	2 (≈ 1.29 µM)	2 (≈ 1.29 µM)	4 (≈ 2.59 µM)	8 (≈ 5.17 µM)	16 (≈ 10.3 µM)	8 (≈ 5.17 µM)	2 (≈ 1.29 µM)	16 (≈ 10.3 µM)	8 (≈ 5.17 µM)	4 (≈ 2.59 µM)	MIC Staphylococcus aureus ATCC 25923 [14]: 1 µg/mL (≈ 0.647 µM); MIC Candida albicans ATCC MYA-2876 [15]: 8 µg/mL (≈ 5.17 µM); MIC Candida tropicalis ATCC 750 [16]: 8 µg/mL (≈ 5.17 µM); MIC Pseudomonas aeruginosa ATCC 27853 [17]: 2 µg/mL (≈ 1.29 µM); MIC Candida utilis ATCC 9950 (Candida utilis ATCC 9950): 8 µg/mL (≈ 5.17 µM)
CC(=O)N[C@H](CCCCN)C(=O)N[C@H](CCCNC(=N)N)C(=O)N[C@H](CC(C)C)C(=O)N[C@H](CC(C)C)C(=O)N[C@H](Cc1ccc2ccccc2c1)C(=O)N[C@H](CCCCN)C(=O)N[C@H](CC(C)C)C(=O)N[C@H](CCCCN)C(=O)N[C@H](Cc1ccc2ccccc2c1)C(=O)N[C@H](CCCCN)C(=O)N[C@H](CCCNC(=N)N)C(N)=O [LV-23] (Ac-[dK][dR][dL][dL][d2Nal][dK][dL][dK][d2Nal][dK][dR]-NH2)	1	97.5	2	1	1	0	1	9.7** Days	1 (≈ 0.618 µM)	2 (≈ 1.24 µM)	8 (≈ 4.94 µM)	2 (≈ 1.24 µM)	4 (≈ 2.47 µM)	4 (≈ 2.47 µM)	8 (≈ 4.94 µM)	8 (≈ 4.94 µM)	2 (≈ 1.24 µM)	4 (≈ 2.47 µM)	16 (≈ 9.89 µM)	4 (≈ 2.47 µM)	MIC Staphylococcus aureus ATCC 25923 [14]: 1 µg/mL (≈ 0.618 µM); MIC Candida albicans ATCC MYA-2876 [15]: 16 µg/mL (≈ 9.89 µM); MIC Candida tropicalis ATCC 750 [16]: 4 µg/mL (≈ 2.47 µM); MIC Pseudomonas aeruginosa ATCC 27853 [17]: 2 µg/mL (≈ 1.24 µM); MIC Candida utilis ATCC 9950 (Candida utilis ATCC 9950): 8 µg/mL (≈ 4.94 µM)
CC(=O)N[C@H](CCCNC(=N)N)C(=O)N[C@H](CCCCN)C(=O)N[C@H](CC(C)C)C(=O)N[C@H](CC(C)C)C(=O)N[C@H](Cc1ccc(Cl)cc1)C(=O)N[C@H](CCCCN)C(=O)N[C@H](CC(C)C)C(=O)N[C@H](CCCCN)C(=O)N[C@H](Cc1ccc(Cl)cc1)C(=O)N[C@H](CCCCN)C(=O)N[C@H](CCCNC(=N)N)C(N)=O [LV-7] (Ac-[dR][dK][dL][dL][dPhe(4-Cl)][dK][dL][dK][dPhe(4-Cl)][dK][dR]-NH2)	1	98.9	2	2	0	1	1	8.9** Days	1 (≈ 0.63 µM)	4 (≈ 2.52 µM)	8 (≈ 5.04 µM)	4 (≈ 2.52 µM)	4 (≈ 2.52 µM)	4 (≈ 2.52 µM)	8 (≈ 5.04 µM)	8 (≈ 5.04 µM)	4 (≈ 2.52 µM)	8 (≈ 5.04 µM)	8 (≈ 5.04 µM)	2 (≈ 1.26 µM)	MIC Staphylococcus aureus ATCC 25923 [14]: 1 µg/mL (≈ 0.63 µM); MIC Candida albicans ATCC MYA-2876 [15]: 8 µg/mL (≈ 5.04 µM); MIC Candida tropicalis ATCC 750 [16]: 8 µg/mL (≈ 5.04 µM); MIC Pseudomonas aeruginosa ATCC 27853 [17]: 2 µg/mL (≈ 1.26 µM); MIC Candida utilis ATCC 9950 (Candida utilis ATCC 9950): 8 µg/mL (≈ 5.04 µM)
CC(=O)N[C@H](CCCNC(=N)N)C(=O)N[C@H](CCCCN)C(=O)N[C@H](CC(C)C)C(=O)N[C@H](CC(C)C)C(=O)N[C@H](Cc1ccc2ccccc2c1)C(=O)N[C@H](CCCNC(=N)N)C(=O)N[C@H](CC(C)C)C(=O)N[C@H](CCCCN)C(=O)N[C@H](Cc1ccc2ccccc2c1)C(=O)N[C@H](CCCNC(=N)N)C(=O)N[C@H](CCCCN)C(N)=O [LV-20] (Ac-[dR][dK][dL][dL][d2Nal][dR][dL][dK][d2Nal][dR][dK]-NH2)	1	98.2	1	1	0	1	0	11.4**** Days	1 (≈ 0.607 µM)	4 (≈ 2.43 µM)	4 (≈ 2.43 µM)	1 (≈ 0.607 µM)	2 (≈ 1.21 µM)	2 (≈ 1.21 µM)	8 (≈ 4.86 µM)	2 (≈ 1.21 µM)	1 (≈ 0.607 µM)	8 (≈ 4.86 µM)	8 (≈ 4.86 µM)	2 (≈ 1.21 µM)	Number of mice that died on each day after infection: day 4 ([3]; 0.2 mg/kg gavage): 1 Mouse; Number of mice that died on each day after infection: day 5 ([3]; 0.2 mg/kg gavage): 1 Mouse; Number of mice that died on each day after infection: day 6 ([3]; 0.2 mg/kg gavage): 2 Mouse; Number of mice that died on each day after infection: day 7 ([3]; 0.2 mg/kg gavage): 2 Mouse; Number of mice that died on each day after infection: day 8 ([3]; 0.2 mg/kg gavage): 0 Mouse; Average survival times (Days) ([3]; 0.2 mg/kg gavage): 9.1** Days; Number of mice that died on each day after infection: day 4 ([3]; 5 mg/kg gavage): 2 Mouse; Number of mice that died on each day after infection: day 5 ([3]; 5 mg/kg gavage): 0 Mouse; Number of mice that died on each day after infection: day 6 ([3]; 5 mg/kg gavage): 2 Mouse; Number of mice that died on each day after infection: day 7 ([3]; 5 mg/kg gavage): 0 Mouse; Number of mice that died on each day after infection: day 8 ([3]; 5 mg/kg gavage): 0 Mouse; Average survival times (Days) ([3]; 5 mg/kg gavage): 10.4*** Days; survival time of mice infected with Escherichia coli ([3]; gavage, observed 14 d): superior to those of the Levofloxacin group; MIC Staphylococcus aureus ATCC 25923 [14]: 1 µg/mL (≈ 0.607 µM); MIC Candida albicans ATCC MYA-2876 [15]: 4 µg/mL (≈ 2.43 µM); MIC Candida tropicalis ATCC 750 [16]: 8 µg/mL (≈ 4.86 µM); MIC Pseudomonas aeruginosa ATCC 27853 [17]: 1 µg/mL (≈ 0.607 µM); MIC Candida utilis ATCC 9950 (Candida utilis ATCC 9950): 8 µg/mL (≈ 4.86 µM)
